Columns and labels:
LdcI–RavA complex [1] = target: T1, LdcI–RavA complex (Escherichia coli, UniProt P31473); experiment: cryo-EM, […] and […] A maps with flexible fitting; type: binding; conditions: 2 mM ADP, 10 mM MgCl2, 0.1 mM PLP, pH 7.9; low local resolution of RavA
T1 construct: purified RavA and LdcI mixed in vitro; LdcI expressed in a ppGpp-null E. coli MG1655 host; with Inducible lysine decarboxylase

RavA = target: T2, RavA (Escherichia coli, UniProt P31473); experiment: cryo-EM, […] and […] A maps with flexible fitting; type: binding; conditions: 1 mM ADP; intersubunit site; spiral with five ADP, closed ring with four ADP per hexamer
T2 construct: homohexamer (6 copies), open spiral and C2-symmetric closed ring; site at the interface of adjacent monomers

LdcI–RavA complex [2] = target: T1, LdcI–RavA complex; experiment: ATPase assay, inorganic phosphate by Fiske and Subbarow; type: biochemical; conditions: 2 mM ATP, 10 mM MgCl2, 50 mM MES/Tris pH 5-9, 25 °C; three-fold molar excess of LdcI

T1 sequence (P31473 whole entry): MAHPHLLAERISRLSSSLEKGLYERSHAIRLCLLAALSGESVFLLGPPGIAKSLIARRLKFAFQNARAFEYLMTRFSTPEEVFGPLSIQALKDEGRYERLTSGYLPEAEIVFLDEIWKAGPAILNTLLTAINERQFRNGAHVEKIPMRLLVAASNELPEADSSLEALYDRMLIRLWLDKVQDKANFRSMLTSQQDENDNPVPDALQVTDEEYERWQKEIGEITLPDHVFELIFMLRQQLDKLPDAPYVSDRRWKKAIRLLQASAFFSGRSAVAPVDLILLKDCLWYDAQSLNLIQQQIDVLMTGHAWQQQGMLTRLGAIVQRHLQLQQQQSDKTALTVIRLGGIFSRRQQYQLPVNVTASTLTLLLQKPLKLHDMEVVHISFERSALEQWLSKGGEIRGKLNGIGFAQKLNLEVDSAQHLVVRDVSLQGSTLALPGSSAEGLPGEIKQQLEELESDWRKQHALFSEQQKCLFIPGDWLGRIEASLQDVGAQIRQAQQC
T1 sequence (P0A9H3 whole entry partner): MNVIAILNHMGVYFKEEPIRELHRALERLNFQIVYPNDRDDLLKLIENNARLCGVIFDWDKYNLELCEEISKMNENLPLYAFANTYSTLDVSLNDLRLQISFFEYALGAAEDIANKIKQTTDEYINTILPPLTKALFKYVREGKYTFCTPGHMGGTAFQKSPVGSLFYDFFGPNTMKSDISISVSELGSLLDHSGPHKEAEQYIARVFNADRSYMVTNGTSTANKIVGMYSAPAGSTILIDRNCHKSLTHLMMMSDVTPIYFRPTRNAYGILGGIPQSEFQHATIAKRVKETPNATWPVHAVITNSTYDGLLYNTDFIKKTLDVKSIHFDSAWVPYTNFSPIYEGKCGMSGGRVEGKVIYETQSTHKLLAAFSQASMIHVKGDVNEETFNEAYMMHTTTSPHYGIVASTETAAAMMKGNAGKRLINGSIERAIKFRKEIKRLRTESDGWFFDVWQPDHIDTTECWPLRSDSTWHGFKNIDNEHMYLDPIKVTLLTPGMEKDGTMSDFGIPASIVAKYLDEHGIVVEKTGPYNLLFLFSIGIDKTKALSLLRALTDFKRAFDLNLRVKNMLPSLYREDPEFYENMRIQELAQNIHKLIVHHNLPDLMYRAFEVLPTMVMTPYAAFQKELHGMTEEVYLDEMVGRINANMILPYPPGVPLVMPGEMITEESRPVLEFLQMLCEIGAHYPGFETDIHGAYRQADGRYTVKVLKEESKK
T2 sequence (P31473 whole entry): as the sequence (P31473 whole entry) above

SMILES	cryo-EM, 7.6 and 7.8 A maps with flexible fitting (LdcI–RavA complex [1])	cryo-EM, 5.96 and 6.94 A maps with flexible fitting (RavA)	ATPase assay, inorganic phosphate by Fiske and Subbarow (LdcI–RavA complex [2])
Nc1ncnc2c1ncn2[C@@H]1O[C@H](COP(=O)(O)OP(=O)(O)O)[C@@H](O)[C@H]1O [ADP]	Cryo-EM maps of the two classes of the LdcI–RavA complex in ADP-bound state	The map contains densities attributed to five ADP molecules bound to the interface	–
Nc1ncnc2c1ncn2[C@@H]1O[C@H](COP(=O)(O)OP(=O)(O)OP(=O)(O)O)[C@@H](O)[C@H]1O [ATP]	–	–	RavA is still able to efficiently hydrolyse ATP in the LdcI–RavA cage

Reference: PMC6987120, “Structural insights into ATP hydrolysis by the MoxR ATPase RavA and the LdcI-RavA cage-like complex” (Communications Biology, 2020)
